The values below come from PubChem BioAssay (NCI).

Test systems include MDA-MB-231 breast; RPMI-8226 leukemia; PC-3 prostate; SF-295 CNS; MALME-3M melanoma; NCI-H23 lung; SK-OV-3 ovarian; CAKI-1 renal; EKVX NSCLC; MCF7 breast.
Assay in all cases: NCI tumour cell line growth inhibition, 48 h

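In this assay, cells in 96-well plates receive the compound at five concentrations for 48 hours. Endpoints are linearly interpolated between the surrounding concentrations. GI50 marks 50% less growth. The concentration for full growth arrest is given as TGI.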

Turning to `COc1ccc(-n2cc(-c3cc(OC)c(OC)c(OC)c3)nc2SCc2ccccc2)cc1`, the GI50 was greater than 100 µM with MDA-MB-231 breast; 5.5 µM in the test on RPMI-8226 leukemia; 8.7 µM in the test on PC-3 prostate; greater than 100 µM with SF-295 CNS; greater than 100 µM with MALME-3M melanoma; greater than 100 µM with NCI-H23 lung. The GI50 with SK-OV-3 ovarian is greater than 100 µM; with CAKI-1 renal it was greater than 100 µM; with EKVX NSCLC, 11.6 µM; in the test with MCF7 breast, 15.4 µM. The TGI with MDA-MB-231 breast, with RPMI-8226 leukemia, with PC-3 prostate, in the test with SF-295 CNS, in the test with MALME-3M melanoma and with NCI-H23 lung was greater than 100 µM throughout. Also, the TGI in the test with SK-OV-3 ovarian, in the test on CAKI-1 renal, with EKVX NSCLC and in the test on MCF7 breast was greater than 100 µM in each case.

Regarding `Nc1nc(N)c(Cn2ccnc2)c(=O)[nH]1`, the TGI in the test with MDA-MB-231 breast, in the test on RPMI-8226 leukemia, in the test on PC-3 prostate, in the test with SF-295 CNS, in the test on MALME-3M melanoma and in the test on NCI-H23 lung was greater than 100 µM each time. For the same compound, the TGI in the test on SK-OV-3 ovarian, in the test with CAKI-1 renal, with EKVX NSCLC and in the test on MCF7 breast was greater than 100 µM throughout.

Regarding `COc1cc2c(cc1OCCCCCOc1cc3c(cc1OC)C(=O)N1CC(F)C[C@H]1C=N3)N=C[C@@H]1CC(F)CN1C2=O` (some centres undefined), the GI50 was 0.245 µM with MDA-MB-231 breast; less than 0.0151 µM with RPMI-8226 leukemia; 0.295 µM with PC-3 prostate; less than 0.0148 µM in the test with SF-295 CNS; 0.124 µM in the test with MALME-3M melanoma; less than 0.0373 µM with NCI-H23 lung. The GI50 with SK-OV-3 ovarian was 0.327 µM; in the test with CAKI-1 renal it was less than 0.01 µM; with EKVX NSCLC it was 1.1 µM; with MCF7 breast, less than 0.0108 µM. The TGI amounted to 0.55 µM in the test on MDA-MB-231 breast; 0.0622 µM in the test with RPMI-8226 leukemia; 1.49 µM in the test with PC-3 prostate; 0.694 µM in the test on SF-295 CNS; 0.733 µM with MALME-3M melanoma; 0.394 µM with NCI-H23 lung. Also, the TGI in the test with SK-OV-3 ovarian was found to be 46.5 µM; in the test on CAKI-1 renal, 0.411 µM; with EKVX NSCLC, 7.78 µM; with MCF7 breast it was 1.31 µM.

In the case of `O=[N+]([O-])c1ccccc1N=Nc1c(O)[nH]c2ccc(Br)cc12`, the TGI was 25.2 µM in the test on MDA-MB-231 breast; greater than 68.6 µM in the test with RPMI-8226 leukemia; 33.3 µM in the test with PC-3 prostate; 34.3 µM in the test with SF-295 CNS; greater than 100 µM with MALME-3M melanoma; 21.3 µM in the test on NCI-H23 lung. The TGI was greater than 77.3 µM in the test on SK-OV-3 ovarian, 33.1 µM in the test with CAKI-1 renal, greater than 59 µM with EKVX NSCLC and 59.9 µM in the test on MCF7 breast.

In the case of `Nc1cc(C(=O)O)[nH]c(=O)n1`, the TGI in the test with MDA-MB-231 breast, with RPMI-8226 leukemia, in the test with PC-3 prostate, in the test with SF-295 CNS, in the test with MALME-3M melanoma and in the test with NCI-H23 lung was greater than 100 µM each time. The TGI in the test on SK-OV-3 ovarian, with CAKI-1 renal, in the test on EKVX NSCLC and in the test on MCF7 breast was greater than 100 µM in each case.

On to `COc1cccc(C2C3=C(COC3=O)N(CCO)c3cc(OC)ccc32)c1` (centres undefined), for which the GI50 is 0.362 µM with MDA-MB-231 breast; 0.271 µM in the test with RPMI-8226 leukemia; 0.0898 µM in the test on PC-3 prostate; 0.0422 µM in the test on SF-295 CNS; 0.0786 µM in the test on MALME-3M melanoma; 0.172 µM in the test on NCI-H23 lung. Moreover, the GI50 with SK-OV-3 ovarian is 0.109 µM; with CAKI-1 renal, 0.768 µM; with EKVX NSCLC, 22.6 µM; in the test on MCF7 breast, 0.0348 µM. The TGI in the test with MDA-MB-231 breast is 4.91 µM; in the test with RPMI-8226 leukemia, greater than 100 µM; with PC-3 prostate, greater than 100 µM; in the test with SF-295 CNS, greater than 100 µM; in the test on MALME-3M melanoma, greater than 100 µM; in the test with NCI-H23 lung, greater than 100 µM. In addition, the TGI in the test on CAKI-1 renal, in the test on EKVX NSCLC and in the test on MCF7 breast was greater than 100 µM in each case.

For `CC(C)(O)C#Cc1ccc(/C=C/C(=O)c2ccccc2)s1`, the GI50 in the test with MDA-MB-231 breast is 16.7 µM; in the test with RPMI-8226 leukemia, 3.07 µM; in the test on PC-3 prostate, 13.6 µM; in the test with SF-295 CNS, 17.7 µM; in the test with MALME-3M melanoma it was 16.4 µM; in the test on NCI-H23 lung, 16.9 µM. Besides, the GI50 in the test with SK-OV-3 ovarian was 16.5 µM; in the test with CAKI-1 renal, 16.9 µM; in the test with EKVX NSCLC, 17.9 µM; in the test on MCF7 breast, 3.63 µM. For the same compound, the TGI with MDA-MB-231 breast is 32.3 µM; in the test with RPMI-8226 leukemia, 11.5 µM; in the test on PC-3 prostate, 29.7 µM; in the test on SF-295 CNS, 35.5 µM; with MALME-3M melanoma, 36.1 µM; in the test with NCI-H23 lung, 34.7 µM. Also, the TGI in the test on SK-OV-3 ovarian was found to be 30.1 µM; in the test on CAKI-1 renal it was 30.6 µM; in the test on EKVX NSCLC, 32 µM; in the test on MCF7 breast, 16.7 µM.

In the case of `COc1cc2c(cc1O)-c1c(cnn1-c1ccc([N+](=O)[O-])cc1)CCC2`, the TGI came out at 33.2 µM in the test on MDA-MB-231 breast; 16.6 µM in the test on RPMI-8226 leukemia; 58.7 µM in the test with PC-3 prostate; 82.5 µM with SF-295 CNS; 29.2 µM in the test on MALME-3M melanoma; 41.9 µM with NCI-H23 lung. For the same compound, the TGI was greater than 100 µM with SK-OV-3 ovarian, 38.5 µM in the test with CAKI-1 renal, 80.5 µM in the test on EKVX NSCLC and greater than 100 µM with MCF7 breast.

Turning to `C#CCN(Cc1nc2cc(C(F)(F)F)ccc2nc1-c1ccccc1)c1ccc(OC(F)(F)F)cc1`, the GI50 was 28.4 µM with MDA-MB-231 breast; 23.3 µM in the test on RPMI-8226 leukemia; 44.4 µM with PC-3 prostate; greater than 100 µM with SF-295 CNS; greater than 100 µM in the test with MALME-3M melanoma; 60.5 µM in the test on NCI-H23 lung. Also, the GI50 is greater than 100 µM in the test with SK-OV-3 ovarian, 62 µM with CAKI-1 renal, 32.6 µM in the test with EKVX NSCLC and 32 µM in the test on MCF7 breast. Further, the TGI in the test with MDA-MB-231 breast, in the test on RPMI-8226 leukemia, in the test with PC-3 prostate, with SF-295 CNS, in the test with MALME-3M melanoma and with NCI-H23 lung was greater than 100 µM throughout. For the same compound, the TGI in the test with SK-OV-3 ovarian, in the test on CAKI-1 renal, in the test on EKVX NSCLC and in the test with MCF7 breast was greater than 100 µM each time.

Turning to `CCCCCc1nc2c(c3c1CCCC3)CCCC2`, the GI50 in the test with MDA-MB-231 breast is 11 µM; in the test with RPMI-8226 leukemia, 3.39 µM; in the test on PC-3 prostate, 8.04 µM; in the test on SF-295 CNS, 4.58 µM; in the test with MALME-3M melanoma, 11.3 µM; with NCI-H23 lung, 5.06 µM. Besides, the GI50 in the test on SK-OV-3 ovarian is 11.6 µM; in the test on CAKI-1 renal, 3.98 µM; with EKVX NSCLC, 4.21 µM; in the test on MCF7 breast, 5.28 µM. The TGI in the test with MDA-MB-231 breast was found to be 26.2 µM; in the test on RPMI-8226 leukemia, 16.4 µM; with PC-3 prostate it was 31.1 µM; with SF-295 CNS, 20.9 µM; in the test on MALME-3M melanoma it was 25.7 µM; in the test on NCI-H23 lung, 25.6 µM. Further, the TGI in the test on SK-OV-3 ovarian turned out to be 30 µM; with CAKI-1 renal it was 24 µM; with EKVX NSCLC, 26.9 µM; in the test on MCF7 breast it was 21.2 µM.

`COc1ccc2c(c1)=C(C=C1C=CN(O)C=C1)C(=O)N=2`: the GI50 with MDA-MB-231 breast was 23.6 µM; with RPMI-8226 leukemia it was 24.1 µM; in the test with PC-3 prostate it was 29.5 µM; in the test with SF-295 CNS, 34.3 µM; with MALME-3M melanoma, 24.3 µM; with NCI-H23 lung, 23.8 µM. The GI50 was 18.8 µM in the test on SK-OV-3 ovarian, 28.2 µM in the test with CAKI-1 renal, 43.9 µM in the test on EKVX NSCLC and 20.9 µM in the test on MCF7 breast. The TGI in the test on MDA-MB-231 breast was greater than 100 µM; in the test on RPMI-8226 leukemia, greater than 67.7 µM; in the test with PC-3 prostate, greater than 100 µM; with SF-295 CNS it was greater than 93.8 µM; in the test on MALME-3M melanoma, 55.9 µM; in the test on NCI-H23 lung it was 72.3 µM. Moreover, the TGI was 54.5 µM in the test on SK-OV-3 ovarian, greater than 89.6 µM in the test on CAKI-1 renal, greater than 100 µM in the test with EKVX NSCLC and greater than 100 µM with MCF7 breast.

Turning to `Oc1ccc(CN2CCC(N3CCOCC3)CC2)c2cccnc12`, the GI50 was 47.9 µM with MDA-MB-231 breast; 32.7 µM with RPMI-8226 leukemia; 46.2 µM in the test with PC-3 prostate; 39.8 µM in the test on SF-295 CNS; 29.1 µM in the test on MALME-3M melanoma; 35 µM in the test with NCI-H23 lung. Moreover, the GI50 is greater than 100 µM in the test on SK-OV-3 ovarian, 29.2 µM with CAKI-1 renal, 36.6 µM with EKVX NSCLC and 22.7 µM in the test with MCF7 breast. Also, the TGI with MDA-MB-231 breast, in the test on RPMI-8226 leukemia, in the test on PC-3 prostate, with SF-295 CNS, in the test on MALME-3M melanoma and in the test with NCI-H23 lung was greater than 100 µM in each case. For the same compound, the TGI with SK-OV-3 ovarian is greater than 100 µM; in the test with CAKI-1 renal it was greater than 100 µM; in the test with EKVX NSCLC, greater than 100 µM; with MCF7 breast it was 76.8 µM.

With `O=C1CC(c2cccc(O)c2)C2(C(=O)NC(=S)NC2=O)C(c2cccc(O)c2)C1` (centres undefined), the GI50 in the test on MDA-MB-231 breast, in the test with RPMI-8226 leukemia, in the test with PC-3 prostate, with SF-295 CNS, in the test on MALME-3M melanoma and in the test with NCI-H23 lung was greater than 100 µM in each case. The GI50 in the test on SK-OV-3 ovarian, in the test on CAKI-1 renal, in the test on EKVX NSCLC and with MCF7 breast was greater than 100 µM each time. Besides, the TGI in the test on MDA-MB-231 breast, in the test with RPMI-8226 leukemia, in the test with PC-3 prostate, in the test on SF-295 CNS, with MALME-3M melanoma and in the test on NCI-H23 lung was greater than 100 µM each time. The TGI with SK-OV-3 ovarian, with CAKI-1 renal, in the test with EKVX NSCLC and in the test with MCF7 breast was greater than 100 µM each time.
